biological target: T1, FXR ligand binding domain (GST-FXR LBD fusion protein) (Homo sapiens, UniProt Q96RI1); assay: Radioligand binding assay (scintillation proximity, radioligand displacement); conditions: GST-FXR LBD on SPA beads, 20 nM radioligand, test compound 6×10^−9 M to 2.5×10^−5 M
T1 construct: made in house; host or cells: E. coli BL21(pLysS)
T1 sequence (Q96RI1 193-472 isoform Q96RI1-2 limits assumed): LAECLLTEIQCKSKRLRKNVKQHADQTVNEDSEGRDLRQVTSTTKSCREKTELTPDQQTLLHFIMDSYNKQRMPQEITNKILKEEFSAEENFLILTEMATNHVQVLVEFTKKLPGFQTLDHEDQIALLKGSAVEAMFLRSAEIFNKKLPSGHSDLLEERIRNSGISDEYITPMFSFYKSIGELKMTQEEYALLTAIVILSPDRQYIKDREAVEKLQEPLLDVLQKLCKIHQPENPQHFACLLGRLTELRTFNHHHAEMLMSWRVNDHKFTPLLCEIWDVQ
Method: The following tests were carried out in order to determine the activity of the compounds of formula (I). Background information on the binding assay can be found in: Nichols J S et al. “Development of a scintillation proximity assay for peroxisome proliferator-activated receptor gamma ligand binding domain”, (1998) Anal. Biochem. 257: 112-119.
Bacterial and mammalian expression vectors were constructed to produce glutathione-s-transferase (GST) and Gal4 DNA binding domain (GAL) proteins fused to the ligand binding domain (LBD) of human FXR (aa 193-473). To accomplish this, the portions of the sequences encoding the FXR LBD were amplified by polymerase chain reaction (PCR) from a full-length clone by PCR and then subcloned into the plasmid vectors. The final clone was verified by DNA sequence analysis.
The induction, expression, and subsequent purification of GST-LBD fusion protein was performed in E. coli strain BL21(pLysS) cells by standard methods (Current Protocols in Molecular Biology, Wiley Press, ed. Ausubel et al.).
Radioligand Binding Assay
Binding of test substances to the FXR ligand binding domain was assessed in a radioligand displacement assay. The assay was performed in a buffer consisting of 50 mM Hepes, pH 7.4, 10 mM NaCl, 5 mM MgCl2, 0.01% CHAPS. For each reaction well in a 96-well plate, 40 nM of GST-FXR LBD fusion protein was bound to 10 μg glutathione ytrium silicate SPA beads (PharmaciaAmersham) in a final volume of 50 μl by shaking. A radioligand (e.g., 20 nM of 2,N-dicyclohexyl-2-[2-(2,4 dimethoxy-phenyl)-benzoimidazol-1-yl]-acetamide) and test compounds were added, and scintillation proximity counting was performed. All binding assays were performed in 96-well plates and the amount of bound ligand was measured on a Packard TopCount using OptiPlates (Packard). Dose response curves were performed within a range of test compound concentrations from 6×10^−9 M to 2.5×10^−5 M and IC50 values were calculated.

| Compound | IC50 |
| --- | --- |
| CO[C@@H](c1ccccc1)c1nc2cc(F)c(F)cc2n1[C@@H](C(=O)Nc1ccc(C(=O)O)cc1C)C1CCCCC1 (single isomer, unassigned) [Example 5A] | 300 nM |
| CO[C@@H](c1ccccc1)c1nc2cc(F)c(F)cc2n1[C@H](C(=O)Nc1ccc(C(=O)O)cc1)C1CCCCC1 (single isomer, unassigned) [Example 1B] | 1000 nM |
| 6-{(R)-2-Cyclohexyl-2-[5,6-difluoro-2-((S)-methoxy-phenyl-methyl)-benzoimidazol-1-yl]-acetylamino}-nicotinic acid [Example 10A] | 200 nM |
| CO[C@@H](c1ccccc1)c1nc2cc(F)c(F)cc2n1[C@@H](C(=O)Nc1ccc(C(=O)O)cc1F)C1CCCCC1 (single isomer, unassigned) [Example 3A] | 500 nM |
| CO[C@H](c1ccccc1)c1nc2cc(F)c(F)cc2n1[C@H](C(=O)Nc1ccc(C(=O)O)cc1Cl)C1CCCCC1 (single isomer, unassigned) [Example 8B] | 60 nM |
| CO[C@H](c1ccccc1)c1nc2cc(F)c(F)cc2n1[C@@H](C(=O)Nc1ccc(C(=O)O)cc1)C1CCCCC1 (single isomer, unassigned) [Example 2A] | 1600 nM |
| CO[C@H](c1ccccc1)c1nc2cc(F)ccc2n1C(C(=O)N[C@H]1CC[C@H](CC(=O)O)CC1)C1CCCCC1 (stereo partly drawn) [Example 11, (trans-4-{2-Cyclohexyl-2-[5-fluoro-2-((R)-methoxy-phenyl-methyl)-benzoimidazol-1-yl]-acetylamino}-cyclohexyl)-acetic acid] | 21000 nM |
| CO[C@@H](c1ccccc1)c1nc2cc(F)c(F)cc2n1[C@@H](C(=O)Nc1ccc(C(=O)O)cc1Cl)C1CCCCC1 (single isomer, unassigned) [Example 7A] | 300 nM |
| CO[C@H](c1ccccc1)c1nc2cc(F)c(F)cc2n1[C@H](C(=O)Nc1ccc(C(=O)O)cc1C)C1CCCCC1 (single isomer, unassigned) [Example 6B] | 60 nM |
| 6-{(S)-2-Cyclohexyl-2-[5,6-difluoro-2-((S)-methoxy-phenyl-methyl)-benzoimidazol-1-yl]-acetylamino}-nicotinic acid [Example 10B] | 100 nM |
| CO[C@H](c1ccccc1)c1nc2cc(F)ccc2n1C(C(=O)N[C@H]1CC[C@H](C(=O)O)CC1)C1CCCCC1 (stereo partly drawn) [Example 12, trans-4-{2-Cyclohexyl-2-[5-fluoro-2-((R)-methoxy-phenyl-methyl)-benzoimidazol-1-yl]-acetylamino}-cyclohexanecarboxylic acid] | 6800 nM |
| CO[C@@H](c1ccccc1)c1nc2cc(F)c(F)cc2n1[C@H](C(=O)Nc1ccc(C(=O)O)cc1C)C1CCCCC1 (single isomer, unassigned) [Example 5B] | 1100 nM |
| CO[C@H](c1ccccc1)c1nc2cc(F)c(F)cc2n1[C@@H](C(=O)Nc1ccc(C(=O)O)cc1C)C1CCCCC1 (single isomer, unassigned) [Example 6A] | 5000 nM |
| CO[C@@H](c1ccccc1)c1nc2cc(F)c(F)cc2n1[C@H](C(=O)Nc1ccc(C(=O)O)cc1F)C1CCCCC1 (single isomer, unassigned) [Example 3B] | 400 nM |
| CO[C@@H](c1ccccc1)c1nc2cc(F)c(F)cc2n1[C@H](C(=O)Nc1ccc(C(=O)O)cn1)C1CCCCC1 (single isomer, unassigned) [Example 9B] | 2600 nM |
| CO[C@H](c1ccccc1)c1nc2cc(F)c(F)cc2n1[C@H](C(=O)Nc1ccc(C(=O)O)cc1F)C1CCCCC1 (single isomer, unassigned) [Example 4B] | 30 nM |
| CO[C@@H](c1ccccc1)c1nc2cc(F)c(F)cc2n1[C@H](C(=O)Nc1ccc(C(=O)O)cc1Cl)C1CCCCC1 (single isomer, unassigned) [Example 7B] | 20 nM |
| CO[C@H](c1ccccc1)c1nc2cc(F)c(F)cc2n1[C@@H](C(=O)Nc1ccc(C(=O)O)cc1F)C1CCCCC1 (single isomer, unassigned) [Example 4A] | 500 nM |
| CO[C@@H](c1ccccc1)c1nc2cc(F)c(F)cc2n1[C@@H](C(=O)Nc1ccc(C(=O)O)cc1)C1CCCCC1 (single isomer, unassigned) [Example 1A] | 1900 nM |
| CO[C@@H](c1ccccc1)c1nc2cc(F)c(F)cc2n1[C@@H](C(=O)Nc1ccc(C(=O)O)cn1)C1CCCCC1 (single isomer, unassigned) [Example 9A] | 1700 nM |
| CO[C@H](c1ccccc1)c1nc2cc(F)c(F)cc2n1[C@@H](C(=O)Nc1ccc(C(=O)O)cc1Cl)C1CCCCC1 (single isomer, unassigned) [Example 8A] | 400 nM |
| CO[C@H](c1ccccc1)c1nc2cc(F)c(F)cc2n1[C@H](C(=O)Nc1ccc(C(=O)O)cc1)C1CCCCC1 (single isomer, unassigned) [Example 2B] | 300 nM |

Source: patent US8143422B2, “Benzimidazole derivatives” (Hoffmann-La Roche Inc., priority 2008, dated 2012)
